Experimental data taken from patent US20210127719A1, “AROMATIC MIXTURE FOR REDUCING THE ODOR OR TASTE OF BIOGENIC AMINES” (SYMRISE AG, priority 2016, published 2021).

Key:
[1] = Fish sauce triangle test with odor description
From the text: The panelists received the following instruction: Please smell the three samples and mark the sensorially deviating samples with a cross. In any case, one of the samples must be ticked, even if no difference can be noted.

[2] = Panel rating of odor attributes of soy sauce containing biogenic amines, with and without added compound; conditions: panelists n=6-8, scale 0-10, versus product alone
From the text: The panelists (n=6-8) rate the attributes animalistic—fishy, metallic as well as woody, sweet, flowery and terpenic, herbal on an unstructured scale from 0 (no taste)—10 (strong taste). Thereby, the order is arbitrary and not known by the panelists beforehand.

[3] = dosage of the compound 0.5 mg/kg
[4] = dosage of the compound 0.1 mg/kg

Row | Structure (SMILES) | Odor description (indication of relative change in percent) Animalistic-fishy, metallic ([2]; dosage of the compound 1 mg/kg) [%] | Odor description (indication of relative change in percent) Terpenig, herbal ([2]; dosage of the compound 1 mg/kg) [%] | Odor description (indication of relative change in percent) Woody, sweet, flowery ([2]; dosage of the compound 1 mg/kg) [%] | Odor description (indication of relative change in percent) Animalistic-fishy, metallic [2, 3] [%] | Odor description (indication of relative change in percent) Terpenig, herbal [2, 3] [%] | Odor description (indication of relative change in percent) Woody, sweet, flowery [2, 3] [%] | also measured
1 | CC1=CCCC(C)(C)C1/C=C/C(C)O (stereo not drawn) [Alpha-Ionol, (E)-4-(2,6,6-trimethylcyclohex-2-en-1-yl)but-3-en-2-ol] |  |  |  |  |  |  | Odor description [1, 3]: bready, earthy, rounded
2 | CC(=O)/C=C/C1=C(C)CCCC1(C)C [Beta ionone, (E)-4-(2,6,6-trimethylcyclohex-1-en-1-yl)but-3-en-2-one] |  |  |  |  |  |  | Odor description (indication of relative change in percent) Animalistic-fishy, metallic ([2]; dosage of the compound 2 mg/kg): 2.4%; Odor description (indication of relative change in percent) Terpenig, herbal ([2]; dosage of the compound 2 mg/kg): −28.9%; Odor description (indication of relative change in percent) Woody, sweet, flowery ([2]; dosage of the compound 2 mg/kg): 51.9%; Odor description [1, 3]: less silage notes,
3 | CCC(O)CCC1C(C)CCCC1(C)C (centres unmarked) [Madranol, 1-(2,2,6-trimethylcyclohexyl)pentan-3-ol] | −13.9 | −6.0 | 6.6 |  |  |  | 
4 | CC1=CC=C2C(C)(C)CCCC2(C)O1 (centres unmarked) [Cycloionone, 2,5,5,8a-tetramethyl-7,8-dihydro-6H-chromene] |  |  |  | 2.3 | 19.6 | 33.8 | 
5 | CCCC(O)CCC1C(C)CCCC1(C)C (centres unmarked) [Timberol, 1-(2,2,6-trimethylcyclohexyl)hexan-3-ol] | −26.5 | −3.8 | 27.9 |  |  |  | 
6 | C/C=C/C(=O)C1C(C)=CCCC1(C)C (stereo not drawn) [Alpha-damascone, (E)-1-(2,6,6-trimethylcyclohex-2-en-1-yl)but-2-en-1-one] |  |  |  |  |  |  | Odor description ([1]; dosage of the compound 0.2 mg/kg): cocoa note, sweet,
7 | CC1CCc2nccnc21 (centres unmarked) [5-Methyl-6,7-dihydrocyclopentapyrazine, 5-methyl-6,7-dihydro-5H-cyclopenta[b]pyrazine] |  |  |  | −7.4 | −5.2 | −10.0 | Odor description ([1]; dosage of the compound 0.05 mg/kg): not fishy, less silage notes,
8 | CC(=O)/C=C/C1C(C)=CCCC1(C)C (stereo not drawn) [Alpha ionone, (E)-4-(2,6,6-trimethylcyclohex-2-en-1-yl)but-3-en-2-one] | −20.5 | −7.6 | −4.4 |  |  |  | Odor description [1, 4]: bready, earthy,
9 | C/C=C/C=C1/C(C)=CC(=O)CC1(C)C [Tabanon, (4E)-4-[(E)-but-2-enylidene]-3,5,5-trimethyl-cyclohex-2-en-1-one] | −18.8 | −8.2 | 13.7 |  |  |  | Odor description [1, 3]: bready, less
10 | CC(=O)CCC1=C(C)CCCC1(C)C [Dihydroionone] |  |  |  | 8.9 | −8.3 | 9.5 | 
11 | CC(=O)/C=C/C12OC1(C)CCCC2(C)C (stereo not drawn) [Beta epoxyionone, (E)-4-(1,5,5-trimethyl-7-oxabicyclo[4.1.0]heptan-6-yl)but-3-en-2-one] |  |  |  | −5.4 | 21.1 | 22.8 | 
12 | CC1=CC(C)C(C=O)C(C)C1 (centres unmarked) [Isocyclocitral] |  |  |  |  |  |  | Odor description ([1]; dosage of the compound 1 mg/kg): bready, rounded,
13 | CCc1ncc(C)nc1CC [2,3-Diethyl-5-methyl-pyrazine, 2,3-diethyl-5-methyl-pyrazine] |  |  |  |  |  |  | Odor description [1, 4]: metallic, dusty,
